From patent US12466814B2, “Sterically shielded heptamethine cyanine dyes” (UNIVERSITY OF NOTRE DAME DU LAC, priority 2020, dated 2025)
Like-named read-outs stand apart in the source and are kept apart here. Marks after values point to notes of the source that are not given here.

Assays:
[1] = known from literature; cited from earlier work
[2] = PBS pH 7.4, cited from earlier work; for ε: reported data; for λabs max / λem max: spectral data from reference
[3] = cited from earlier work; for QY / Brightness (fluorescence brightness = ε × QY): PBS pH 7.4; for QY: data from reference; for Brightness (fluorescence brightness = ε × QY) / Quantum yield: reported data; for Quantum yield: pH 7.4 PBS
[4] = meso linkage is not cleaved by biological amines or thiols; cited from earlier work
[5] = Dye self-aggregation by absorption/excitation spectra; format: physicochemical; conditions: in water / aqueous media, absorption spectra
From the text: Self-aggregation of heptamethine cyanine dyes is readily indicated by conversion of monomer absorption bands into aggregate bands, in this case blue-shifted H-aggregates.

[6] = system: integrin positive A549 cells; test: Cell uptake by fluorescence microscopy; format: cell-based, human
Description: FIG. 19. […] The two targeted dyes contain a cyclic peptide cRGDfK sequence for targeting the overexpressed cell surface integrin receptors. The blocking experiments added 100 μM of free cRGDfK prior to the incubation with RGD probes. NIR heptamethine fluorescence is shown in green, and Hoechst nuclear stain is shown in blue. Scale bar=30 μm. (c) Quantification of intracellular mean fluorescence intensities as a measure of NIR dye internalization (6 micrographs per condition and 3 replicates). * indicates p<0.05, and ** p<0.01.
Cell Microscopy. For fluorescence microscopy, A549 cells were seeded and grown to 70% confluency on an 8-well chambered coverglass (Lab-Tek, Nunc, USA). […] For blocking, 100 μM of cRGDfK was added to the cells, 10 min prior to dye treatment and remained present during NIR dye incubation. After dye incubation, the cells were washed several times with PBS, fixed with 4% cold paraformaldehyde for 20 min at room temperature and washed again with PBS. […] Next, a triangle threshold was employed and used to calculate the average mean pixel intensity (MPI) where overall averages and SEM were calculated and plotted in GraphPad Prism. A total of 6 micrographs were evaluated per condition and each experiment was conducted in triplicate.

[7] = Absorption and emission spectral properties of dyes; format: physicochemical; conditions: for ε: monomer band
Description: General. Reagents and solvents were purchased from Sigma-Aldrich, VWR, Oakwood, Thermo Fisher and TCI and used without further purification unless stated otherwise. Anhydrous tetrahydrofuran was distilled with metal sodium and benzophenone. Column chromatography was performed using Biotage SNAP Ultra columns. ^1H, ^13C and ROESY NMR spectra were recorded on a Bruker 500 NMR spectrometer. Chemical shifts are presented in ppm and referenced by residual solvent peak. High-resolution mass spectrometry (HRMS) was performed using a time-of-flight (TOF) analyzer with electrospray ionization (ESI). Absorption spectra were recorded on an Evolution 201 UV/vis spectrometer with Thermo Insight software. Fluorescence spectra were collected on a Horiba Fluoromax-4 fluorometer with FluoroEssence software. Analyte solutions were prepared in HPLC grade water (Sigma-Aldrich), phosphate buffered saline (Thermo Fisher), fetal bovine serum (Sigma-Aldrich) or buffer B (575 mM NaCl, 37.5 mM NaH2PO4 and 0.75 mM EDTA in water, pH 7.5). All absorption and fluorescence spectra were collected using quartz cuvettes (1 mL, 1 cm path length; for emission and excitation spectra, slit width=3 nm).

[8] = Quantum yield and fluorescence brightness relative to UL766; format: physicochemical; conditions: for Brightness (fluorescence brightness = ε × QY): PBS pH 7.4, error ±15%; for Quantum yield: pH 7.4 PBS, relative to UL766, error ±10%
From the text: The fluorescence spectrum of each solution was obtained with excitation at 730 nm, and the integrated area was used in the quantum yield calculation by the following equation:
[formula] where η is the refractive index of the solvent, I is the integrated fluorescence intensity, and A is the absorbance at a chosen wavelength. […]

[9] = Photostability, Xenon lamp irradiation; format: physicochemical
Description: FIG. 2. Two separate photostability studies. (a) Lamp irradiation: Four separate cuvettes, each containing 1 μM dye in PBS buffer, pH 7.4, were irradiated by a 150 W Xenon lamp with a 620 nm long-pass filter. The plot of normalized dye absorbance versus time was fit to a one-phase exponential decay. […] The length scale bar on each NIR fluorescence image is 1 cm.
Photostability Measurements. Lamp Irradiation: A solution of dye (1 μM) in PBS buffer, pH 7.4, was placed in a 1×1×4 cm^3 cuvette that was exposed to air and irradiated at a distance of 3 cm by a 150 W Xenon lamp with a 620 nm long-pass filter. An absorbance spectrum was recorded every 10 min. The normalized maximum absorbance of dye was plotted against time and fitted to a non-linear regression, one-phase exponential decay. […] A 1.5 mL vial containing the solution was irradiated at a distance of 3 cm by a 150 W Xenon lamp with a 620 nm long-pass filter.

[10] = Mouse biodistribution in normal mice; format: in vivo, SKH1 hairless mice; conditions: 10 nmol
From the text: FIG. 20. a) Representative whole-body NIR fluorescence images of living SKH1 hairless mice at 0, 1, and 2 hr after intravenous injection of either ICG or s775z (10 nmol). b) In vivo biodistribution of s775z and ICG in normal mice. The SKH1 hairless mice (N=4) received an intravenous injection of ICG or s775z (10 nmol) and were sacrificed after 2 hr. The mean pixel intensity (MPI) for each excised organ is relative to the MPI for thigh muscle from the same animal; error bars indicate ±SEM. * indicates p<0.05. Note: the y-axis is truncated.
Mouse Biodistribution. All animal experiments were conducted under protocols that were approved by the Notre Dame Institutional Animal Care and Use Committee. Female SKH1 hairless mice (N=4) were divided into two cohorts and received a retro-orbital injection of ICG or s775z (50 μL, 10 nmol). […] The mice were then injected with dye and imaged at 0, 1, and 2 hr. At 2 hr, the mice were anesthetized, sacrificed via cervical dislocation, and blood was collected from the heart. The lower cavity of the mice was then exposed and imaged. […] The images were pseduocolored “fire,” and an arbitrary maximum fluorescence value was chosen. […] The amount of dye was then quantified by manually drawing a region of interest around each organ. The MPI of each organ was measured and divided by the MPI for thigh muscle from the same animal.

[11] = system: subcutaneous tumor (human A549 cells); test: Mouse tumor imaging; format: in vivo, nude mice; conditions: A549 tumor mice, 10 nmol
Description: […]. The fluorescence mean pixel intensity (MPI) of two regions of interest (equal sizes) on the fluorescent images (tumor or background site on the opposite flank), at different post-injection time points, were measured using ImageJ2 software and used to calculate values for Tumor MPI, and Tumor-to-Background Ratio. * indicates p<0.05, ** p<0.01, and *** p<0.001.
Mouse Tumor Imaging. All animal experiments were conducted under protocols that were approved by the Notre Dame Institutional Animal Care and Use Committee. Female Foxn1 nude mice (N=8) were inoculated with A549 cells (1×10^6) in Corning Matrigel matrix on the right rear flank. […]. The mice were then injected with dye and imaged at 0, 0.5, 1, 2, and 3 hr. At 3 hr, the mice were anesthetized and sacrificed via cervical dislocation, and blood was collected from the heart. To simulate a surgery, the mice were imaged prior to surgery, the fluorescent tumor was fully removed, and the mice were imaged again. […] For image processing, the whole body and tumor images were pseudocolored “fire,” and an arbitrary maximum fluorescence value was chosen. Biodistribution analysis was performed by importing NIR fluorescence images of the excised organs from each mouse into ImageJ2 and the amount of dye in each organ was quantified by manually drawing a region of interest around each organ and determining the fluorescence MPI. […]

Row | Compound | Change in serum under very similar conditions [1] | ε [2] | λabs max [2] [nm] | λem max [2] [nm] | QY [3] | Brightness (fluorescence brightness = ε × QY) [3] | Quantum yield [3] [%] | Stable to nucleophiles [4] | ε ([7]; PBS pH 7.4, room temperature) | Brightness (fluorescence brightness = ε × QY) [8] | Quantum yield [8] | further results
1 | CC1(C)C(/C=C/C2=C(Oc3ccc(S(=O)(=O)O)cc3)C(=C/C=C3/N(CCCCS(=O)(=O)O)c4ccc(S(=O)(=O)[O-])cc4C3(C)C)/CCC2)=[N+](CCCCCC(=O)O)c2ccc(S(=O)(=O)O)cc21 [CW800] | degradation | 242,000 M^−1cm^−1 | 775 | 796 | 0.090 | 22,000 | 9.0 | No | – | – | – | –
2 | CC1(C)C(/C=C/C2=C(c3ccc(C(=O)NCCCC[C@@H]4NC(=O)[C@@H](Cc5ccccc5)NC(=O)[C@H](CC(=O)O)NC(=O)CNC(=O)[C@H](CCCNC(=N)N)NC4=O)cc3)C(=C/C=C3/N(CCC[N+](C)(C)C)c4ccc(S(=O)(=O)O)cc4C3(C)C)/CCC2)=[N+](CCC[N+](C)(C)C)c2ccc(S(=O)(=O)O)cc21 [Dye 756z-RGD] | – | – | – | – | – | – | – | – | 147,000 M^−1cm^−1 | 16,000 | 10.7^[b] % | Aggregation state [5]: concentration-dependent mixture of fluorescent monomer and non-fluorescent H-aggregate; Cell uptake with blocking ([6]; A549 cells pre-incubated with excess (100 μM) cRGDfK): successfully blocked; Cell uptake ([6]; A549 cells, 10 μM dye, 1 hr, 37° C.): much higher cell uptake; SS (Stokes shift) ([7]; PBS pH 7.4): 16 nm; λabs max, aggregate (a) band ([7]; PBS pH 7.4, room temperature): 682 (a)/ nm; λem max ([7]; PBS pH 7.4, room temperature): 773 nm; λabs max ([7]; PBS pH 7.4, room temperature, monomer (m) band where an aggregate band is also listed): 757 (m) nm
3 | CC1(C)C(/C=C/C=C/C=C/C=C2\N(CCCCS(=O)(=O)O)c3ccc4ccccc4c3C2(C)C)=[N+](CCCCS(=O)(=O)[O-])c2ccc3ccccc3c21 [ICG, Indocyanine Green] | – | – | – | – | – | – | – | – | 71,000 M^−1cm^−1 | 1,600 | 2.3^[b] % | half-life at 1 μM ([9]; PBS buffer in a cuvette exposed to air, pH 7.4 PBS, 150 W Xenon lamp irradiation, 620 nm long-pass filter, 23° C., 1 μM dye, read-out: t1/2, half-life of first-order decay (converted)): 13.3 min; k, rate constant of first-order decay ([9]; pH 7.4 PBS, 150 W Xenon lamp irradiation, 620 nm long-pass filter, 23° C., 1 μM dye): 0.00087 s⁻¹; Order of photostabilities ([9]; separate cuvettes, dye in PBS, Xenon lamp >620 nm): s775z>756z>UL766>ICG; Clearance from bloodstream ([10]; retro-orbital injection, live imaging over 2 hr): quickly cleared from the mouse bloodstream; Clearance pathway / biodistribution ([10]; sacrificed after 2 hours): accumulated in the intestines and liver
4 | CC1(C)C(/C=C/C2=C(Oc3ccc(CCC(=O)O)cc3)C(=C/C=C3/N(CCC[N+](C)(C)C)c4ccc(S(=O)(=O)O)cc4C3(C)C)/CCC2)=[N+](CCC[N+](C)(C)C)c2ccc(S(=O)(=O)O)cc21 [ZW800-1] | degradation | 246,000 M^−1cm^−1 | 770 | 788 | 0.135 | 33,000 | 13.5 | No | – | – | – | –
5 | COCCOCCOCCOCc1cn(Cc2cc(C(=O)NCCCC[C@@H]3NC(=O)[C@@H](Cc4ccccc4)NC(=O)[C@H](CC(=O)O)NC(=O)CNC(=O)[C@H](CCCNC(=N)N)NC3=O)cc(Cn3cc(COCCOCCOCCOC)nn3)c2C(=C\C=C\C2=[N+](CCC[N+](C)(C)C)c3ccc(S(=O)(=O)O)cc3C2(C)C)/C=C/C=C2/N(CCC[N+](C)(C)C)c3ccc(S(=O)(=O)O)cc3C2(C)C)nn1 [s775z-RGD] | – | – | – | – | – | – | – | – | – | – | – | Clearance and background retention [11]: rapid, near-exclusive renal clearance from the bloodstream
